In US4482559A, “4-Phenyl-4,5,6,7-tetrahydro-thieno [2,3-c]pyridines, compositions and use” (Boehringer Ingelheim KG, priority 1982, dated 1984):
Read-outs that look alike come from different tables or passages of the source.

Experiments:
[1] = system: hypothermic effect caused by reserpine; experiment: reserpine antagonism (reversal of the hypothermic effect caused by reserpine) in mice; assay type: in vivo; details: Mus musculus, oral, reserpine 2 mg/kg i.p. 17 hours before
Procedure: The test used for determining antidepressant properties was reserpine antagonism, namely the reversal of the hypothermic effect caused by reserpine. This test was carried out on mice, using five animals per dose. 17 hours after the intraperitoneal administration of 2 mg/kg of reserpine, the peripheral body temperature was measured at an ambient temperature of 19° C. Then, the test compound was administered by the oral route, and the body temperature was measured after 1, 3, 5 and 7 hours had elapsed. A median effective dose (ED50) was determined for each period of measurement. This is the dose at which the body temperature of the animals treated with reserpine is brought closer to the normal temperature of the untreated control animals by 50%.

[2] = LD50 in the mouse by oral route; details: in vivo
[3] = 1 hour, read-out: Reserpine antagonism, median effective dose (ED50) after 1 hr
[4] = 3 hours, read-out: Reserpine antagonism, median effective dose (ED50) after 3 hrs
[5] = 5 hours, read-out: Reserpine antagonism, median effective dose (ED50) after 5 hrs
[6] = 7 hours, read-out: Reserpine antagonism, median effective dose (ED50) after 7 hrs

Cc1ccc(C2CN(C)Cc3sc(CO)cc32)cc1 (stereo not drawn) [2-(Hydroxy-methyl)-6-methyl-4-p-tolyl-4,5,6,7-tetrahydrothieno[2,3-c]pyridine] gave an ED50 [1, 3] of 2.5 mg/kg, an ED50 [1, 4] of 0.24 mg/kg and an ED50 [1, 5] of 2.5 mg/kg. The ED50 [1, 6] was > 10 mg/kg and the LD50 [2] was ~740 mg/kg.
Compound CN1Cc2sc(CN3CCOCC3)cc2C(c2ccc(Br)cc2)C1 (stereo not drawn) [2-(Morpholino-methyl)-4-(p-bromo-phenyl)-6-methyl-4,5,6,7-tetrahydro-thieno[2,3-c]pyridine] has an ED50 [1, 3] of 22 mg/kg, an ED50 [1, 4] of 1.7 mg/kg and an ED50 [1, 5] of 1.7 mg/kg. The ED50 [1, 6] was 10 mg/kg and the LD50 [2] was > 640 mg/kg.
For CN1Cc2sc(CN3CCOCC3)cc2C(c2ccc(Cl)cc2)C1 (stereo not drawn) [2-(Morpholino-methyl)-4-(p-chloro-phenyl)-6-methyl-4,5,6,7-tetrahydro-thieno[2,3-c]pyridine], the ED50 [1, 3] was > 40 mg/kg, the ED50 [1, 4] was 2.6 mg/kg and the ED50 [1, 5] was 12 mg/kg. For the same compound, the ED50 [1, 6] was 2.5 mg/kg and the LD50 [2] was > 640 mg/kg.
